Test results as given in ChEMBL document CHEMBL4715880, “Cancer Stem Cell (CSC) Inhibitors in Oncology-A Promise for a Better Therapeutic Outcome: State of the Art and Future Perspectives” (J Med Chem, 2020).

Tests used:
[1] = system: DU-145; assay: Anti-CSC activity against human DU145 cells incubated for 1 week with intermittent feeding of medium after day 3 by alamarblue staining based soft agar method; assay type: functional, cell-based
[2] = system: PC-3; assay: Anti-CSC activity against human PC-3 cells assessed as inhibition of sphere formation at 25 nM by sphere assay relative to control; assay type: functional
[3] = system: MDA-MB-231; assay: Anti-CSC activity against human MDA-MB-231 cells incubated for 48 hrs by MTT assay; assay type: functional, cell-based; conditions: MDA-MB-231, 48 h
[4] = system: Homo sapiens; assay: Anti-CSC activity in patient with pSTAT3-positive tumors assessed as overall survival time at 480 mg, po administered bid with interval of 12 hrs; assay type: functional
[5] = system: PC-3; assay: Anti-CSC activity against human PC-3 cells by soft agar assay; assay type: functional, cell-based
[6] = system: PC-3; assay: Anti-CSC activity against human PC-3 cells by MTT assay; assay type: functional, cell-based
[7] = system: MDA-MB-231; assay: Anti-CSC activity against human MDA-MB-231 cells by MTT assay; assay type: functional, cell-based
[8] = system: MDA-MB-231; assay: Anti-CSC activity against human MDA-MB-231 cells by soft agar assay; assay type: functional, cell-based
[9] = system: DU-145; assay: Anti-CSC activity against human DU-145 cells by MTT assay; assay type: functional, cell-based
[10] = Cytotoxicity against human PBMC by MTT assay; assay type: tissue-based
[11] = system: PC-3; assay: Anti-CSC activity against human PC-3 cells incubated for 1 week by alamarblue staining based soft agar method; assay type: functional, cell-based; conditions: PC-3, 168 h
[12] = system: PC-3; assay: Anti-CSC activity against human PC-3 cells assessed as inhibition of sphere formation at 2.5 uM by phase-contrast microscopy relative to control; assay type: functional
[13] = system: MDA-MB-231; assay: Anti-CSC activity against human MDA-MB-231 cells assessed as inhibition of sphere formation at 250 nM by phase-contrast microscopy; assay type: functional
[14] = system: T47D; assay: Anti-CSC activity against human T47D cells incubated for 48 hrs by MTT assay; assay type: functional, cell-based
[15] = system: MG-63; assay: Cytotoxicity against human MG-63 cells incubated for 48 hrs by CCK-8 assay; assay type: functional, cell-based; conditions: MG-63, 48 h
[16] = Selectivity ratio of IC50 for […] to IC50 for human MG-63 cells
[17] = system: HOS-TE85; assay: Cytotoxicity against human MNNG/HOS cells incubated for 48 hrs by CCK-8 assay; assay type: functional, cell-based; conditions: HOS-TE85, 48 h
[18] = Selectivity ratio of IC50 for human hFOB1.19 cells to IC50 for human MG-63 cells

O=C(CCl)Nc1ccc2c(c1)CCC2
IC50 [1]: 1160 nM | inhibition at 0.025 µM [2]: > 50% | IC50 [3]: 730 nM

CC(=O)c1cc2c(o1)C(=O)c1ccccc1C2=O [NAPABUCASIN]
Time [4]: 5.1 months

C=C(C)[C@H](CC=C(C)C)C[C@]12C[C@H](CC=C(C)C)C(C)(C)[C@](CC=C(C)C)(C(=O)C(C(=O)c3ccc(O)c(O)c3)=C1O)C2=O
IC50 [5]: 3460 nM | IC50 [6]: 2860 nM | IC50 [7]: 2430 nM | IC50 [8]: 2130 nM | IC50 [9]: 2870 nM

O=C(Cn1cc(COc2cccc3ccccc23)nn1)Nc1ccc(Cl)cc1
IC50 [10]: > 100000 nM | IC50 [3]: 2160 nM | IC50 [11]: 2900 nM | inhibition at 2.5 µM [12]: 50%

O=C(Cn1cc(COc2ccc3ccccc3c2)nn1)Nc1ccc(Cl)cc1
IC50 [10]: > 100000 nM | IC50 [3]: 1470 nM | IC50 [11]: 12100 nM | inhibition at 0.25 µM [13]: > 50%

N#Cc1c(NC(=O)CCl)sc2c1CCCC2
IC50 [1]: 270 nM | inhibition at 0.025 µM [2]: > 50% | IC50 [14]: 330 nM

Oc1ccc(/C=C/c2cc(O)cc(O)c2)cc1 [RESVERATROL]
IC50 [15]: 28600 nM | Ratio IC50 [16]: >40 | IC50 [17]: 20600 nM | Ratio IC50 [18]: >40
